Ten compounds from patent US8906909B2 (Curis, Inc., priority 2009, dated 2014) can be followed below.

SMILES strings stand for the structures.

In data set [1] the test system is HDACs (HeLa cell nuclear extracts). Briefly: HDAC enzymatic activity, Biomol Color de Lys system. It counts as biochemical. The procedure, abridged:
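HeLa nuclear extract as HDAC source with Color de Lys substrate in 50 mM Tris/Cl pH 8.0, 137 mM NaCl, 2.7 mM KCl, 1 mM MgCl2. Serially diluted compounds reacted 1 h at 25 °C, then developer added; fluorescence (Ex 350–380/Em 440–460) fitted sigmoidally for IC50.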

Consider `COc1ccc(-c2nc(N3CCOCC3)c3sc(S(=O)(=O)Nc4ncc(C(=O)NO)cn4)cc3n2)cn1` [Compound 252, 2-[2-(6-Methoxy-pyridin-3-yl)-4-morpholin-4-yl-thieno[3,2-d]pyrimidine-6-sulfonylamino]-pyrimidine-5-carboxylic acid hydroxyamide], for which the melting point is 259 to 265 °C. Moreover, the IC50 in data set [1] is below 100 nM.
`CN(Cc1cc2nc(-c3cccc4[nH]ncc34)nc(N3CCOCC3)c2s1)c1ccc(/C=C/C(=O)NO)cc1` [Compound 81, (E)-3-(4-(((2-(1H-indazol-4-yl)-4-morpholinothieno[3,2-d]pyrimidin-6-yl)methyl)(methyl)amino)phenyl)-N-hydroxyacrylamide] gave a melting point of 188 to 190 °C. Moreover, the IC50 in data set [1] was in the range of 1000 to 10000 nM.
For `CC(C)CN(Cc1cc2nc(-c3cccc4[nH]ncc34)nc(N3CCOCC3)c2s1)c1ncc(C(=O)NO)cn1` [Compound 93, 2-(((2-(1H-indazol-4-yl)-4-morpholinothieno[3,2-d]pyrimidin-6-yl)methyl)(isobutyl)amino)-N-hydroxypyrimidine-5-carboxamide] the same measures were 196 to 198 °C and 100 to 1000 nM.
Turning to `CN(Cc1cc2nc(-c3ccc(CO)cc3)nc(N3CCOCC3)c2s1)c1ncc(C(=O)NO)cn1` [Compound 140, N-hydroxy-2-(((2-(4-(hydroxymethyl)phenyl)-4-morpholinothieno[3,2-d]pyrimidin-6-yl)methyl)(methyl)amino)pyrimidine-5-carboxamide], the melting point is 218 to 223 °C. For the same compound, the IC50 in data set [1] is below 100 nM.
As to `CN(Cc1cc2nc(-c3cccc(N)c3)nc(N3CCOCC3)c2s1)c1ncc(C(=O)NO)cn1` [Compound 134, 2-(((2-(3-aminophenyl)-4-morpholinothieno[3,2-d]pyrimidin-6-yl)methyl)(methyl)amino)-N-hydroxypyrimidine-5-carboxamide], the melting point lay in the range of 179 to 182 °C. This compound also yielded an IC50 in data set [1] below 100 nM.
In the same order, the values of `CN(Cc1cc2nc(-c3ccc4c(c3)CC(=O)N4)nc(N3CCOCC3)c2s1)c1ncc(C(=O)NO)cn1` [Compound 194, N-hydroxy-2-(methyl((4-morpholino-2-(2-oxoindolin-5-yl)thieno[3,2-d]pyrimidin-6-yl)methyl)amino)pyrimidine-5-carboxamide] are 270 °C (dec.) and below 100 nM.
As for `CNC(=O)c1cccc(-c2nc(N3CCOCC3)c3sc(CN(C)c4ncc(C(=O)NO)cn4)cc3n2)c1` [Compound 144, N-hydroxy-2-(methyl((2-(3-(methylcarbamoyl)phenyl)-4-morpholinothieno[3,2-d]pyrimidin-6-yl)methyl)amino)pyrimidine-5-carboxamide], the melting point is 215 to 217 °C. In addition, the IC50 in data set [1] was below 100 nM.
In the same order, the values of `Nc1ncc(-c2nc(N3CCOCC3)c3sc(NCCCCCCC(=O)NO)cc3n2)cn1` [Compound 234, 7-[2-(2-Amino-pyrimidin-5-yl)-4-morpholin-4-yl-thieno[3,2-d]pyrimidin-6-ylamino]-heptanoic acid hydroxyamide] are 235 to 240 °C and below 100 nM.
For the compound `CNc1ccc(-c2nc(N3CCOCC3)c3sc(C(C)(C)Nc4ncc(C(=O)NO)cn4)cc3n2)cn1` [Compound 240, N-Hydroxy-2-(2-(2-(6-(methylamino)pyridin-3-yl)-4-morpholinothieno[3,2-d]pyrimidin-6-yl)propan-2-ylamino)pyrimidine-5-carboxamide], the melting point was 200 to 205 °C. The same compound showed an IC50 in data set [1] below 100 nM.
Compound `CN(Cc1cc2nc(-c3ccccc3)nc(N3CCOCC3)c2s1)c1ncc(C(=O)NO)cn1` [Compound 129, N-hydroxy-2-(methyl((4-morpholino-2-phenylthieno[3,2-d]pyrimidin-6-yl)methyl)amino)pyrimidine-5-carboxamide] came in with a melting point of 199 to 200 °C. For the same compound, the IC50 in data set [1] was below 100 nM.
